Test results: patent publication US10548933B2, “Method for preparing broccoli protein peptide mixture” (ZHEJIANG HISUN PHARMACEUTICAL CO., LTD., priority 2015, dated 2020)

Test: DPPH free radical scavenging rate method (antioxidant capacity)
Format: biochemical
Conditions: 30 min, dark, 517 nm, average of three
Description: The antioxidant capacity was determined with the neutral protease and trypsin-digested peptide prepared in example 2, as well as the alkaline protease-digested peptide, the trypsin-digested peptide, the neutral protease-digested peptide, the papain-digested peptide and the pepsin-digested peptide prepared in example 3 used as samples, with soybean protein peptide and reduced glutathione used as controls (DPPH free radical scavenging rate method).
(1) DPPH (1,1-diphenyl-2-picrylhydrazyl) (25 mg) was weighed accurately, dissolved in absolute ethanol and the volume reached to 250 mL in a brown volumetric flask, DPPH solution with the concentration of 0.1 mg/mL was obtained and was kept in dark place to be supplied as standby.
(2) 1.0 mL sample solutions with different concentrations (100 mg/mL, 10 mg/mL, 1 mg/mL, 0.1 mg/mL) were taken, the solutions were placed in a 10 mL colorimetric tube respectively, 4.0 ml DPPH solution was added, the mixture was reacted at room temperature in a dark place for 30 minutes.
(3) The absorbance value was measured at 517 nm with the absolute ethanol as blank. The DPPH free radical scavenging rate was calculated according to the following formula. DPPH free radical scavenging rate (%)=[…] • In the formula. A0—the absorbance value of 1.0 mL distilled water+3.0 mL solution • As—the absorbance value of 1.0 mL sample solution+3.0 mL DPPH solution • Ac—the absorbance value of 1.0 mL sample solution+3.0 mL absolute ethanol.
The experiment was repeated for three times, the average value of the scavenging rate was obtained (if the solution was turbid, the measurement was taken after centrifugation).

N[C@@H](CCC(=O)N[C@@H](CS)C(=O)NCC(=O)O)C(=O)O [Reduced glutathione (GSH), Reduced glutathione]
DPPH free radical scavenging rate (sample concentration 0.1 mg/ml): 30.8%
DPPH free radical scavenging rate (sample concentration 1 mg/ml): 72.1%
DPPH free radical scavenging rate (sample concentration 10 mg/ml): 90.9%
DPPH free radical scavenging rate (sample concentration 100 mg/ml): 95.9%
